Assay results published in patent publication US20240391862A1, “(1,4,5-TRISUBSTITUTED-1H-PYRAZOL-3-YL)OXY-2-ALKOXY ALKYL ACIDS AND THEIR DERIVATIVES, THEIR SALTS AND THEIR USE AS HERBICIDAL AGENTS” (Bayer AKtiengesellschaft, priority 2021, published 2024).

Legend:
LOLRI = assay: Pre-emergence herbicidal effect, greenhouse pot test; format: in vivo, Lolium rigidum; conditions: scored visually after about 3 weeks vs untreated controls
Description: (§1) Seeds of monocotyledonous and dicotyledonous weed plants and crop plants are placed in plastic or organic planting pots and covered with soil. The compounds of the invention, formulated in the form of wettable powders (WP) or as emulsion concentrates (EC), are then applied to the surface of the covering soil as aqueous suspension or emulsion with addition of 0.5% additive at a water application rate equivalent to 600 l/ha. After the treatment, the pots are placed in a greenhouse and kept under good growth conditions for the trial plants. After about 3 weeks, the effect of the preparations is scored visually in comparison with untreated controls as percentages. For example, 100% activity=the plants have died, 0% activity=like control plants.
(§2) Tables 1a to 19c below show the effects/crop compatibilities of selected compounds of the general formula (I) on various harmful plants at an application rate corresponding to 20 to 320 g/ha, which were obtained by the trial procedure specified above.
(§3) • ALOMY: Alopecurus myosuroides SETVI: Setaria viridis • AVEFA: Avena fatua POLCO: Fallopia convolvulus • AMARE: Amaranthus retroflexus ECHCG: Echinochloa crus-galli • LOLRJ: Lolium rigidum STEME: Stellaria media • VERPE: Veronica persica MATIN: Tripleurospermum inodorum • DIGSA: Digitaria sanguinalis ABUTH: Abutylon threophrasti • TRZAS: Triticum aestivum VIOTR: Viola tricolor • BRSNW: Brassica napus ZEAMX: Zea mays • PHBPU: Ipomoea purpurea GLXMA: Glycine max • ORYSA: Oryza sativa HORMU: Hordeum murinum

POLCO = assay: as above; format: in vivo, Fallopia convolvulus; conditions: scored visually after about 3 weeks vs untreated controls; for pest or weed control at 320 g/ha: Fallopia convolvulus, 504 h, read-out: Pre-emergence effect at 320 g/ha against POLCO in %
Description: as §1, §2, §3

ALOMY = assay: as above; format: in vivo, Alopecurus myosuroides; conditions: scored visually after about 3 weeks vs untreated controls
Description: as §1, §2, §3

ZEAMX = assay: Pre-emergence herbicidal effect and crop plant compatibility, greenhouse pot test; format: in vivo, Zea mays; conditions: scored visually after about 3 weeks vs untreated controls
Description: as §1, §2, §3

DIGSA = assay: Pre-emergence herbicidal effect, greenhouse pot test; format: in vivo, Digitaria sanguinalis; conditions: scored visually after about 3 weeks vs untreated controls
Description: as §1, §2, §3

PHBPU = assay: as above; format: in vivo, Ipomoea purpurea; conditions: scored visually after about 3 weeks vs untreated controls
Description: as §1, §2, §3

ECHCG = assay: as above; format: in vivo, Echinochloa crus-galli; conditions: scored visually after about 3 weeks vs untreated controls; for pest or weed control at 320 g/ha: Echinochloa crus-galli, 504 h, read-out: Pre-emergence effect at 320 g/ha against ECHCG in %
Description: as §1, §2, §3

MATIN = assay: as above; format: in vivo, Tripleurospermum inodorum; conditions: scored visually after about 3 weeks vs untreated controls; for pest or weed control at 320 g/ha: Tripleurospermum inodorum, 504 h, read-out: Pre-emergence effect at 320 g/ha against MATIN in %
Description: as §1, §2, §3

KCHSC = assay: as above; format: in vivo; conditions: scored visually after about 3 weeks vs untreated controls
Description: as §1, with “control plants. Tables 1a to 19c below show the effects/crop compatibilities of selected compounds of the general formula (I) on various harmful plants at an application rate corresponding to 20 to 320 g/ha, which were obtained by the trial procedure specified above.” for “control plants.”

VIOTR = assay: as above; format: in vivo, Viola tricolor; conditions: scored visually after about 3 weeks vs untreated controls
Description: as §1, §2, §3

AMARE = assay: as above; format: in vivo, Amaranthus retroflexus; conditions: scored visually after about 3 weeks vs untreated controls; for pest or weed control at 320 g/ha: Amaranthus retroflexus, 504 h, read-out: Pre-emergence effect at 320 g/ha against AMARE in %
Description: as §1, §2, §3

SETVI = assay: as above; format: in vivo, Setaria viridis; conditions: scored visually after about 3 weeks vs untreated controls; for pest or weed control at 320 g/ha: Setaria viridis, 504 h, read-out: Pre-emergence effect at 320 g/ha against SETVI in %
Description: as §1, §2, §3

ABUTH = assay: as above; format: in vivo, Abutilon theophrasti; conditions: scored visually after about 3 weeks vs untreated controls
Description: as §1, §2, §3

AVEFA = assay: as above; format: in vivo, Avena fatua; conditions: scored visually after about 3 weeks vs untreated controls
Description: as §1, §2, §3

VERPE = assay: as above; format: in vivo, Veronica persica; conditions: scored visually after about 3 weeks vs untreated controls
Description: as §1, §2, §3

Compound	Pre-emergence effect at 80 g/ha against LOLRI in % (LOLRI) [%]	Pre-emergence effect at 320 g/ha against LOLRI in % (LOLRI) [%]	Pre-emergence effect at 80 g/ha against POLCO in % (POLCO) [%]	Pre-emergence effect at 80 g/ha against ALOMY in % (ALOMY) [%]	Pre-emergence effect at 320 g/ha against ALOMY in % (ALOMY) [%]	Pre-emergence effect at 20 g/ha against ZEAMX in % (ZEAMX) [%]	Pre-emergence effect at 320 g/ha against DIGSA in % (DIGSA) [%]	Pre-emergence effect at 320 g/ha against PHBPU in % (PHBPU) [%]	Pre-emergence effect at 80 g/ha against ECHCG in % (ECHCG) [%]	Pre-emergence effect at 80 g/ha against VIOTR in % (VIOTR) [%]	Pre-emergence effect at 320 g/ha against VIOTR in % (VIOTR) [%]	Pre-emergence effect at 80 g/ha against AMARE in % (AMARE) [%]	Pre-emergence effect at 320 g/ha against ABUTH in % (ABUTH) [%]	Pre-emergence effect at 80 g/ha against AVEFA in % (AVEFA) [%]	Pre-emergence effect at 320 g/ha against AVEFA in % (AVEFA) [%]	pest or weed control at 320 g/ha (POLCO; 320 g/ha) [%]	pest or weed control at 320 g/ha (ECHCG; 320 g/ha) [%]	pest or weed control at 320 g/ha (MATIN; 320 g/ha) [%]	pest or weed control at 320 g/ha (AMARE; 320 g/ha) [%]	pest or weed control at 320 g/ha (SETVI; 320 g/ha) [%]	also measured
COC(=O)CCOC(=O)C(OC)Oc1nn(-c2ncccc2F)c(-c2cncc(F)c2)c1C1CC1 (single isomer, unassigned) [Example I-76]	90	100	90	90	90	20	90	90	90	100	100	100	90	90	100	–	–	–	–	–	Pre-emergence effect at 320 g/ha against POLCO in % (POLCO; 320 g/ha): 90%; Pre-emergence effect at 80 g/ha against DIGSA in % (DIGSA; 80 g/ha): 80%; Pre-emergence effect at 320 g/ha against ECHCG in % (ECHCG; 320 g/ha): 100%; Pre-emergence effect at 320 g/ha against MATIN in % (MATIN; 320 g/ha): 90%; Pre-emergence effect at 20 g/ha against KCHSC in % (KCHSC; 20 g/ha): 90%; Pre-emergence effect at 80 g/ha against KCHSC in % (KCHSC; 80 g/ha): 90%; Pre-emergence effect at 320 g/ha against KCHSC in % (KCHSC): 100%; Pre-emergence effect at 20 g/ha against AMARE in % (AMARE): 80%; Pre-emergence effect at 320 g/ha against AMARE in % (AMARE; 320 g/ha): 100%; Pre-emergence effect at 80 g/ha against SETVI in % (SETVI; 80 g/ha): 90%; Pre-emergence effect at 320 g/ha against SETVI in % (SETVI; 320 g/ha): 100%; Pre-emergence effect at 80 g/ha against ABUTH in % (ABUTH; 80 g/ha): 90%
COC(=O)C(OC)Oc1nn(-c2cc(F)ccc2F)c(-c2cncc(F)c2)c1C1CC1 (stereo not shown) [Example I-31, Methyl {[4-cyclopropyl-1-(2,5-difluorophenyl)-5-(5-fluoropyridin-3-yl)-1H-pyrazol-3-yl]oxy}(methoxy)acetate]	–	100	100	–	100	–	90	90	90	100	100	100	80	90	90	100	100	100	100	90	Pre-emergence effect at 20 g/ha against POLCO in % (POLCO): 80%; Pre-emergence effect at 320 g/ha against VERPE in % (VERPE): 90%; Pre-emergence effect at 80 g/ha against PHBPU in % (PHBPU): 90%; Pre-emergence effect at 80 g/ha against MATIN in % (MATIN): 90%; Pre-emergence effect at 20 g/ha against AMARE in % (AMARE): 80%
COC(Oc1nn(-c2cc(F)ccc2F)c(-c2cncc(F)c2)c1C1CC1)C(=O)O (stereo not shown) [Example I-34]	90	100	90	90	100	–	80	90	90	100	100	100	90	90	100	90	100	90	100	90	Pre-emergence effect at 20 g/ha against POLCO in % (POLCO): 90%; Pre-emergence effect at 320 g/ha against VERPE in % (VERPE): 80%; Pre-emergence effect at 80 g/ha against PHBPU in % (PHBPU): 90%; Pre-emergence effect at 80 g/ha against MATIN in % (MATIN): 90%; Pre-emergence effect at 20 g/ha against VIOTR in % (VIOTR; 20 g/ha): 80%; Pre-emergence effect at 20 g/ha against AVEFA in % (AVEFA; 20 g/ha): 80%
COC(=O)C(OC)Oc1nn(-c2ccccc2F)c(-c2ccc(F)nc2)c1I (stereo not shown) [Example I-49]	–	90	–	–	90	0	100	–	–	–	90	90	–	–	90	80	90	90	100	100	Pre-emergence effect at 80 g/ha against ZEAMX in % (ZEAMX; 80 g/ha): 0%; Pre-emergence effect at 320 g/ha against KCHSC in % (KCHSC): 100%
